Assay results as given in patent US11479814B2, “Compounds for use in PCR systems and applications thereof” (LIFE TECHNOLOGIES CORPORATION, priority 2013, dated 2022).

System: polymerase
Assay: Amplification plots and Cq of gene targets, Dt4 compared with Tween 20 and Brij-58
Format: biochemical
Settings: B2M, GAPDH, RPLPO; FIGS. 16-18
Source text: All amplification plots shown herein graphically represent target nucleic acid amplification as ΔRn (y-axis) as a function of cycle number (x-axis).
FIGS. 7A through 7D and FIGS. 8A through 8D provide a comparison between Dt4 and Tween® 20 in amplifying four different targets (B2M, GAPDH, RPLPO, and GUSB).
FIG. 9 provides a comparison between Dt4 and Tween® 20 in amplifying various different targets.
FIGS. 11A and 11B, FIGS. 12A and 12B, FIGS. 13A and 13B, FIGS. 14A and 14B, FIGS. 15A and 15B show amplification plots comparing the activity of Dt4 to Brij-58 and Tween® 20 at various concentrations in amplifying HPRT1 or PPIA.
FIGS. 16-18 illustrate that Dt4 may be used at a lower concentration than Tween® 20 in various reactions (e.g., 0.002% Dt4 compared to 0.01% Tween® 20).

Tween® 20
concentration used in amplification reactions: 0.01%
